Key:
[1] = tested on: Geobacillus stearothermophilus spores; test: VOC production (SPME, GC-MS) during the first 20 minutes of spore germination, growth medium with or without additive (Example 1); type: cell-based
Description: Spore suspension of Geobacillus stearothermophilus (1×10^6 CFU/0.1 mL) were diluted to reach a concentration of 500-800 CFU/30-50 μL after being heat shock for 15 min at 95-99° C. to kill all vegetative cell that might have been present in the suspension.
A modified soybean casein digest broth was diluted (10×) with HPLC grade water and sterilize by filtration 0.45 μm to limit the amount of VOC in the background. was used with or without the addition of an additive.
For the VOC testing, 0.5 mL of the sterile diluted growth medium was transferred in each VOC collection vials. The vials were prewarm at 60° C. for at least 10 minutes. Before starting the VOC sampling, the additive was added to the vials, then the spores according to Table 1 in function of the test to be performed. The VOC were sampled by inserting the SPME fiber into the vial as soon as the spores were added, and the vials were put back in the temperature control systems. The SPME fiber use was an assembly Divinylbenzene/Carboxen/Polydimethylsiloxane (DVB/CAR/PDMS) (Sigma Aldrich—product number 57328-U from Supelco) conditioned at 270° C. for 30 minutes before use. The SPME fibers were removed 20 minutes after the addition of the spores and were analyzed using the GC-MS according to the lab protocols for the apparatus.

[2] = tested on: Geobacillus stearothermophilus spores; test: VOC production (SPME, GC-MS) during the first 15 minutes of spore germination, growth medium with L-threonine or glucose (Example 2); type: cell-based
Description: Spore suspension of Geobacillus stearothermophilus (1×10^6 CFU/0.1 mL) were heated for 30 min at 99-100° C. to kill all vegetative cell that might have been present in the suspension.
A growth medium composed of a modified soybean casein digest broth diluted (200×) with the sterilized germination medium (1,0 mM L-valine in 10 mM sodium phosphate buffer (pH 8.0) as described by “thou T, Dong Z, Setlow P, Li Y-q (2013), Kinetics of Germination of Individual Spores of Geobacillus stearothermophilus as Measured by Raman Spectroscopy and Differential Interference Contrast Microscopy. PLoS ONE 8(9): e74987)” was used with or without the addition of L-threonine or glucose at 5 mM. One test was also performed with the germination medium by itself, without the modified soybean casein digest broth diluted (200×) and the additives. The controls included the SPME fiber alone, in the presence of 2500 μg methanol, and growth medium with and without the L-Threonine or glucose.
For the VOC testing, 0.5 mL of the control solution (methanol) or sterile growth medium was transferred in each VOC collection vials. The vials were prewarm at 65° C. for at least 10 minutes. […] The SPME fibers were removed 15 minutes after the addition of the spores and were analyzed using the GC-MS according to the lab protocols for the apparatus.

[3] = GM + spores (about 500-800 CFU) + additive 5 mM, 60° C., 20 minutes

In the case of `CO[C@H]1O[C@H](CO)[C@@H](O)[C@H](O)[C@H]1O` [Additive, Methyl alpha-D-glucopyranoside], the “Detection of 1-Nonene, Nonane, 1-Octene, Octane, Heptane” value ([1]; Example 1) is reported as “detected only in the presence of the additive”, the “Propene concentration change from the presence of the additive” value ([1]; Example 1) is reported as “not increasing” and the “1-butanol intensity in comparison to the growth medium intensity” value [1, 3] is reported as “(+up to 3X)”. For the same compound, the “Acetaldehyde intensity in comparison to the growth medium intensity” value [1, 3] was “to 2X”, the “Formaldehyde intensity in comparison to the growth medium intensity” value [1, 3] was “(+10X)” and the “Nonanal Octanal Heptanal intensity in comparison to the growth medium intensity” value [1, 3] was “(up to 3X)”.
`C[C@@H](O)[C@H](N)C(=O)O` [L-threonine] was tested, and the “Formation of common VOC such as 1-nonene” value ([2]; Example 2) was “leads to the formation” and the “Butanal produced (qualitative amount)” value ([2]; GM + 5 mM additive + 5000-10000 spores, 65° C., 15 minutes) was “<control”.
